Test results from patent US4785080A, “Labeled analytes” (Baker Instruments Corporation, priority 1985, dated 1988).
“And” between values parts separate entries of the source, which are not always exact repeats. Equal entries are not always repeated.

How the values were obtained:
Format in all cases: binding
dilantin antibody [1] = assay: Homogeneous immunoassay of dilantin standards and clinical samples, automatic data reduction (Example XXI); details: human serum
Method: This Example illustrates the design of an assay capable of directly assaying clinical samples, the use of the automatic pipetter (Model P-500) associated with the Centrifichem® 500 centrifugal fast analyzer, and the use of automatic data reduction.
The following reagents were utilized:
a. Labeled Analyte: Dilantin-S-peptide labeled analyte in 0.1 M triethanolamine (TEA)-HCl buffer, prepared in the manner described in Examples V-VIII was used.
b. Antibody: Anti-dilantin antiserum (150 ul) was diluted with 900 ul of 0.1M TEA-HCl buffer of pH 7.1;
c. Substrate: 5'-O-acetyl 2'-O-(tetrahydro pyran-2-yl) uridine 3'-(4-methylumbelliferone-7-yl ammonium phosphate) (6.4 mg) was added to 285.2 ul of 0.05N HCl and stirred at room temperature for 30 minutes. Sodium acetate buffer (714.8 ul, 0.1M, pH 5.0) was then added;
S-protein: A 12.3×10^-5 M solution of Sigma S-protein was made up in 0.1M TEA-HCl buffer (pH 7.1);
e. Dilantin standards: Solutions of 5, 5-diphenylhydantoin sodium salt (Sigma lot 64C-0027) were made up in human serum at concentrations of 2.5, 5.0, 10.0, 20.0 and 30.0 ug/ml.
A mixture of 16 ul S-peptide labeled analyte, 10 ul of human serum albumin, 1430 ul of TEA-HCl buffer, and the substrate solution described in (c.) was prepared (designated Reagent 1). A second mixture consisting of 150 ul of antiserum, 50 ul of S-protein, and 1937.5 ul of TEA buffer was prepared (designated Reagent 2). Using the CentrifiChem® P-500 automatic pipetter, 4 ul of the appropriate standard solution was simultaneously diluted with 45 ul of deionized H2 O and pipetted into the sample well of transfer disc. At the same time, the pipetter delivered 250 ul of Reagent 1 into the reagent well and 100 ul of Reagent 2 into the sample well. Instrumental parameters for the CentrifiChem® 500 centrifugal fast analyzer were the same as that for Example XX with the exception that Test Code 29 was used. This provides for automatic data reduction by the microprocessor unit of the CentrifiChem® 500 instrument.

dilantin antibody [2] = assay: Heterogeneous double antibody solid phase immunoassay of dilantin, free phase catalytic activity (Example XXII)
Method: A standard displacement curve is generated from the catalytic activity measurement using 5'-O-acetyluridyl-3'-(4-methylumbelliferone-7-yl) phosphate as a fluorogenic substrate for determination of analyte concentration of the control serum.
(§1) The following reagents were prepared:
a. Dilantin-S-peptide labeled analyte: Labeled analyte in TEA-HCl buffer was prepared in the manner described in Examples V-VIII; 120 ul was diluted with 2860 ul of TEA-HCl buffer.
b. Antibody: Anti-dilantin antisera (300 ul) was diluted with 1800 ul of TEA-HCl buffer.
c. Solid phase immobilized second antibody: Bio-Rad IMMUNOBEAD™, Lot 17003, 50 mg was reconstituted with 50 ml of TEA-HCl buffer.
d. Substrate: 5'-O-acetyl-2'-O-(tetrahydropyran-2-yl) uridyl-3'-(4-methylumbelliferone-7-yl) ammonium phosphate, 35 mg, was deblocked with 1.5 ml of 0.025M HCl for 40 minutes at room temperature and extracted twice with 5 ml of ether. The residual ether was removed by the stream of air and the acidic solution was buffered with acetate buffer to 100 ml.
e. Acetate buffer: Sodium acetate buffer, 0.1M, pH 5.0.
f. TEA-HCl buffer: Triethanolamine-HCl buffer, 0.05M, pH 7.5.
g. […]
h. S-protein: Sigma purified solution was diluted 1/20 in acetate buffer.
[…] Antibody aliquots of 100 ul were pipetted into each duplicate tube of standards and the resulting mixtures were vortexed and incubated for 20 minutes at room temperature. Dilantin-S-peptide labeled analyte aliquots of 100 ul each were then pipetted into all tubes. The resulting mixture was incubated for 20 mintes at room temperature.
TEA-HCl buffer (108 ul), and Dilantin-S-peptide labeled analyte (100 ul) were pipetted into duplicate assay tubes labeled total. The resulting mixtures were mixed by vortexing and incubated for 20 minutes at room temperature.
Next a second antibody solution of 500 ul each was pipetted into all tubes except for total assay tubes. TEA-HCl buffer (500 ul) was pipetted into total assay tubes. The resulting mixtures were mixed by vortexing and were incubated for 60 minutes at room temperature. All assay tubes except total were centrifuged for 5 minutes at 3000 rpm at 5°-10° C.
The supernatant (free phase) of each tube was transferred into new tubes marked accordingly. The solid phase was resuspended with 0.5 ml of TEA buffer in each tube and centrifuged as above. The supernatant was decanted off.
Dose responsive catalytic activity was measured as follows:
An aliquot sample (50 ul each) of the free phase and total were assayed respectively with 1.8 ml of substrate and 50 ul of S-protein, measuring the fluorogenic product formation by emission at 440 nm when the mixture was excited at 325 nm, using a. Farrand Mark 1 fluorimeter.
The raw data were fit by a modified log-logit algorithm where the rates at infinite and 0 standard concentrations are obtained by an iterative procedure. Each data point in the Table represents the mean of duplicate points.

dilantin antibody [3] = assay: Reference displacement curve for dilantin, colorimetric, CentrifiChem 500 (Example XX)
Method: This Example illustrates the generation of a reference displacement curve for the dilantin analyte on the CentrifiChem®500 centrifugal fast analyzer. A […] substrate, 5'-O-acetyl-uridine-3'(4-methylumbelliferone-7-yl phosphate), was used.
as §1
a. Dilantin S-peptide labeled analyte: Material prepared in the manner described in Examples V-VIII in 0.1M triethanolamine (TEA)-HCl buffer was used.
b. Antibody: Anti-dilantin antisera was diluted by a factor of 1/20 with 0.1M TEA-HCl buffer of pH 7.1;
c. Substrate: Seventeen milligrams of 5'-O-acetyl 2'-O-(tetrahydropyran-2-yl) uridine 3'-(4-methylumbelliferone-7-yl ammonium phosphate) was added to 750 ul 0.05N HCl and stirred at room temperature for 30 min. Sodium acetate buffer, (1.880 ml, 0.1M, pH 5..0), was added. Just before use, 300 ul of this solution was combined with 5.094 ml of 0.1M TEA-HCl buffer of pH 7.1;
d. S-protein: Sigma purified commercial material was diluted by a factor of 1:100 with 0.1M TEA-HCl buffer of pH 7.1 to give a solution having a concentration of 1.53×10^-6 M;
e. Dilantin standards: A stock solution of 5,5-diphenylhydantoin sodium salt (Sigma Lot 64C-0027) was made up by dissolving 48 mg in 1 liter of 0.025N sodium hydroxide. This was diluted by a factor of 1:10 with 0.025N sodium hydroxide to give a solution having 4.8 ug/ml. This was further diluted to give standard solutions having concentrations of 19.1, 47.8, 95.8, 143.6, and 191.5 ng/ml.
The CentrifiChem® 500 centrifugal fast analyzer had the following instrument settings: rotor temp, 30°; filter, nm; To, 10 sec; T, 1 min; ABS 1.0 u; Blank, hold; test mode, Term; print out, ABS; conc. factor, 0; test code 0.
Antibody, dilantin-S-peptide and 16.6 ul of the standard solution were pipetted into the sample well of channels to 16 of the transfer disc. S-protein and 300 ul of substrate were pipetted into each of the corresponding reagent wells of the transfer disc. The transfer disc was placed on the rotor and spun. […] Catalytic activity rates (a.u./min) were obtained frcm a least squares, regression analysis of absorbances as a function of time.

## O=C1NC(=O)C(c2ccccc2)(c2ccccc2)N1 [dilantin, 5,5-diphenylhydantoin]
Dilantin antibody [1]; standard 2.5 ug/ml
  10^3 Response: 230 a.u. and 231 a.u.
Dilantin antibody [1]; standard 5 ug/ml
  10^3 Response: 252 a.u. and 256 a.u.
Dilantin antibody [1]; standard 10 ug/ml
  10^3 Response: 358 a.u. and 373 a.u.
Dilantin antibody [1]; standard 20 ug/ml
  10^3 Response: 512 a.u. and 494 a.u.
Dilantin antibody [1]; standard 30 ug/ml
  10^3 Response: 525 a.u. and 524 a.u.
Dilantin antibody [2]; standard 2.5 (ug/ml)
  Rate, Mean: 10.0 na/min.
Dilantin antibody [2]; standard 5.0 (ug/ml)
  Rate, Mean: 10.5 na/min.
Dilantin antibody [2]; standard 10.0 (ug/ml)
  Rate, Mean: 14.0 na/min.
Dilantin antibody [2]; standard 20.0 (ug/ml)
  Rate, Mean: 16.5 na/min.
Dilantin antibody [2]; standard 30.0 (ug/ml)
  Rate, Mean: 19.0 na/min.
Dilantin antibody [2]; standard 40.0 (ug/ml)
  Rate, Mean: 20.5 na/min.
Dilantin antibody [3]; standard 19.1 ng/ml
  Rate: 0.0154 a.u./min and 0.0171 a.u./min
Dilantin antibody [3]; standard 47.8 ng/ml
  Rate: 0.0183 a.u./min and 0.0158 a.u./min
Dilantin antibody [3]; standard 95.8 ng/ml
  Rate: 0.0191 a.u./min and 0.0197 a.u./min
Dilantin antibody [3]; standard 143.6 ng/ml
  Rate: 0.0204 a.u./min and 0.0180 a.u./min
Dilantin antibody [3]; standard 191.5 ng/ml
  Rate: 0.0209 a.u./min and 0.0205 a.u./min
